In patent publication US20240293472A1, “Bee Product Extracts, Methods of Production, and Uses Thereof” (Quantum Technologies Limited, priority 2020, published 2024):

Molecular target: T1, HDAC1 (Homo sapiens, UniProt Q13547)
T1 construct: purchased Huntingtree Associates Ltd
Assay: Epigenase HDAC Activity/Inhibition Direct Assay Kit (Colorimetric)
Assay type: biochemical
Conditions: FIG. 20

T1 sequence (Q13547 whole entry): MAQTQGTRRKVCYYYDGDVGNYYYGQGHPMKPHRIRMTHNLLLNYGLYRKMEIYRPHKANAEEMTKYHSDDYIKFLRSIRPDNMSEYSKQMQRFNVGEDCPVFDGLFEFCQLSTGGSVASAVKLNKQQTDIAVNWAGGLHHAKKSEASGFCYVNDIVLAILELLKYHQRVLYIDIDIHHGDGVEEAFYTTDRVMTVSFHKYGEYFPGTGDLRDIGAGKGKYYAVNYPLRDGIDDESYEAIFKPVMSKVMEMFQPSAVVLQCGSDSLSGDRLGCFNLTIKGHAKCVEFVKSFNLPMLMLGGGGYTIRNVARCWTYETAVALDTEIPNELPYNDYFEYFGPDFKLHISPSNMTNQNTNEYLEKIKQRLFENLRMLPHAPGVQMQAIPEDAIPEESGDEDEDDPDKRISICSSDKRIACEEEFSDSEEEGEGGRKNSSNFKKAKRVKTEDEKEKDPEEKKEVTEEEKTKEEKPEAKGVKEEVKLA

For CC(=O)C=O [MGO, Methylglyoxal], which HDAC inhibition is on record?
Its HDAC inhibition is “dose response inhibition”.
